The source of these data is patent US20220031710A1, “USE OF ERK5 INHIBITORS FOR TREATING GLIOMAS IN PEDIATRIC SUBJECTS” (UNIVERSITY OF PITTSBURGH - OF THE COMMONWEALTH SYSTEM OF …, priority 2019, published 2022).

Molecules are shown by their SMILES. Where a SMILES comes first, the peptide text is derived from it. The star is where a group is joined. Cbz = O=C(OCc1ccccc1)*

In one assay the test system is RASAL1. As to the kind of experiment: Western blot of RASAL1 after decitabine treatment. The format is cell-based, human. The following applies: DIPG-007 and NSC H3K27M cells; 5 days; 1 μM. The protocol: (§1) Cell pellets were lysed in PLC lysis buffer containing protease and phosphatase inhibitors (Roche Inc.). Protein lysates were quantified using the bicinchoninic acid (BCA) assay (Pierce Chemical Co., Rockford, Ill.). 30 μg of total protein lysate was loaded in 10% SDS-PAGE gels and electrophoresed. Proteins were transferred to PVDF membranes using a semi-dry transfer apparatus (Bio-Rad). Membranes were blocked for one hour and probed for various proteins overnight in 5% non-fat milk or 5% BSA in Tris Buffered Saline Solution, 0.5% Tween-20 (TBST) or Phosphate Buffered Saline Solution with 0.5% Tween-20 (PBST). Membranes were washed for 5 mins in TBST (3×) and incubated with horseradish peroxidase-conjugated antibodies specific for the primary antibody (BioRad Laboratories, Inc., CA, USA). Binding was detected using Chemiluminescence Reagent Plus (PerkinElmer Inc., MA, USA).
A general note: A western blot detects proteins with antibodies after separation by electrophoresis.

The target in another assay is T1, EZH2 (Homo sapiens, UniProt Q15910).
T1 construct: endogenous in cells; host or cells: H9 hESC-derived human neural stem cells
As to the kind of experiment: Western blot of H3K27Me3, RAS activation and p16 in NSCs treated with EZH2 inhibitor. The class given is cell-based. As to conditions: GSK343 (504). Here is the method: RAS activity was measured using the RAS activation assay (Cell Signaling Technology, Cat #8814). Briefly, active Ras Detection GST-RAF1-RBD fusion protein was used to bind the activated form of GTP-bound RAS, which was then immunoprecipitated from 500 μg of total cell lysate with glutathione resin. RAS activation levels were then determined by western blot using a RAS Mouse mAb. Activated RAS immune-precipitate was normalized to total RAS from whole cell lysate.
as §1

In another assay the test system is NSCs. As to the kind of experiment: Direct Trypan-Blue automated cell count of NSCs treated with EZH2 inhibitor. The format is cell-based, human. As to conditions: GSK343 (504), over 5 days. The protocol:
Direct cell counts were performed using the Countess II FL Automated Cell Counter (ThermoFisher Scientific). Alamar blue viability (ThermoFisher Scientific) and the 5-bromo-2′-deoxyuridine (BrdU) incorporated cell proliferation assay (Cell Signaling Technology Cat #6813) were performed using the manufacturer's standard protocol. EC50 curve analysis was performed using raw fluorescent Alamar blue values that were inputted into PRISM 7.0. Drug concentrations were log 10 transformed and values normalized to percent viability with respect to vehicle treated cells. EC50 values were interpolated from a log inhibitor vs. normalized response with variable slope using a least square fit model.

Another assay has as its system MYC. As to the kind of experiment: Western blot of phospho MYC S62 and total MYC in DIPG cells. The format is cell-based, human. As to conditions: DIPG-IV cells with ERK5 knockdown (Dox); MG132 10 uM. Here is the method: as §1

T1 sequence (Q15910 whole entry): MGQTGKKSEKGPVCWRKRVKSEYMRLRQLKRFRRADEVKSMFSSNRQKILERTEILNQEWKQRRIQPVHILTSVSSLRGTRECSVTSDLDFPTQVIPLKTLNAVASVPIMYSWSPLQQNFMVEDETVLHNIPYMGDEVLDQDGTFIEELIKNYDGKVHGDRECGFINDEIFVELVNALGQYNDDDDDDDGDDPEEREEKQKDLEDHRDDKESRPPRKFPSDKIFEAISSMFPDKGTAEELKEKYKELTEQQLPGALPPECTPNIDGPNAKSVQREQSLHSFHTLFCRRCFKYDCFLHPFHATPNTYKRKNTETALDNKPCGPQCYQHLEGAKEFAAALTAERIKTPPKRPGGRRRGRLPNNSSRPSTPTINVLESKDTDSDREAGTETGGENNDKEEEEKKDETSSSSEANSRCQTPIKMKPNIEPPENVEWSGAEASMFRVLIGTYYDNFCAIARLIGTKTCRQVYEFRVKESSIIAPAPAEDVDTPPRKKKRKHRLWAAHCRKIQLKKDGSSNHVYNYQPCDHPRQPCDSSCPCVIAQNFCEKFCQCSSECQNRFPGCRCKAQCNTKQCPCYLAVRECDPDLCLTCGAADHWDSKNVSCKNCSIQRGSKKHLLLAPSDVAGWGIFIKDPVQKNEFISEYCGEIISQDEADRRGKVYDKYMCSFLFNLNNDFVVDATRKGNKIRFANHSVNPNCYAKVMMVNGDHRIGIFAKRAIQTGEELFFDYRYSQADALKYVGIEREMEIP
T1 sequence (O75530 whole entry partner): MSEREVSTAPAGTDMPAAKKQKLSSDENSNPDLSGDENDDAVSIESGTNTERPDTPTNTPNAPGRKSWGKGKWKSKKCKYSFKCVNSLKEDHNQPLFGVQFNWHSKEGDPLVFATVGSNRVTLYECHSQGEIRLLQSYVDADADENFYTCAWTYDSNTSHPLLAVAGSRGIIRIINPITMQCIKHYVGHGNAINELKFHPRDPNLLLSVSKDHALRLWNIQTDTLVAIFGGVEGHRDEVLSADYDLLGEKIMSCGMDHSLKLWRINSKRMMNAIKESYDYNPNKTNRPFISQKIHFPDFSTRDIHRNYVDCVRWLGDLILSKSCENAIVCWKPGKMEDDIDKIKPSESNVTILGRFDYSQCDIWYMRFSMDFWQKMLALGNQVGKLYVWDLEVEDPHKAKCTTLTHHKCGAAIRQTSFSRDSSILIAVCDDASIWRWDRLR
T1 sequence (Q15022 whole entry partner): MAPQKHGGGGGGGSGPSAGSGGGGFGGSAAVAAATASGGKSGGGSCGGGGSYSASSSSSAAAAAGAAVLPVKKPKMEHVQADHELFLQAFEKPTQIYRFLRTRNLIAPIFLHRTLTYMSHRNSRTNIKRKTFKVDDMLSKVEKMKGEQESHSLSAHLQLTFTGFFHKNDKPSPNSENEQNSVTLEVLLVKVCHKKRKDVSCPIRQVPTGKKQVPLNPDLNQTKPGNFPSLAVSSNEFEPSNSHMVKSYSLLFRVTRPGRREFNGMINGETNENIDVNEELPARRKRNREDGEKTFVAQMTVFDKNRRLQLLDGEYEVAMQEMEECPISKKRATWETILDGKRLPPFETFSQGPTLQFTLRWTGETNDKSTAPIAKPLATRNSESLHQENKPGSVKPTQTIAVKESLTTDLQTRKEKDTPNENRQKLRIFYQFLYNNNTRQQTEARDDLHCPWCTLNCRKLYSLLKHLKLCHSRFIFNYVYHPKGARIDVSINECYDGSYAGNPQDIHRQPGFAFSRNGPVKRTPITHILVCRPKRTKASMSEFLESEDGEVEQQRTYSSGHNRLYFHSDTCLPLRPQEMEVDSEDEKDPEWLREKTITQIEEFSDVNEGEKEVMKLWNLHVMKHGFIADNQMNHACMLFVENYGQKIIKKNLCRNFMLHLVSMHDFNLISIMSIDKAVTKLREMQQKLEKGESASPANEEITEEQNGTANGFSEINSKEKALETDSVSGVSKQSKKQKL
T1 sequence (Q09028 whole entry partner): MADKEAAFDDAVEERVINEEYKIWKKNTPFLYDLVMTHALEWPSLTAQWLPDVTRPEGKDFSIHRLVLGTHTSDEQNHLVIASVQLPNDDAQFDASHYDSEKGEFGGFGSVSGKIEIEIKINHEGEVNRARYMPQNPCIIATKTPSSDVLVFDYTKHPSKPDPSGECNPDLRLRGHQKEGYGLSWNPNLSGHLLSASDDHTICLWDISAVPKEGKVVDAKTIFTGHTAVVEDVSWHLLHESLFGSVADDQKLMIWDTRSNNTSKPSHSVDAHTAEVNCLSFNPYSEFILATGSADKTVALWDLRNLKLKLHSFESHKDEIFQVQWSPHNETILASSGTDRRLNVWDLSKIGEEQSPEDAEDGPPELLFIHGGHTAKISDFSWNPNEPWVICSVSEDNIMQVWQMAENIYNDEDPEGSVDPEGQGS

Consider `Nc1ncn([C@H]2C[C@H](O)[C@@H](CO)O2)c(=O)n1` [decitabine, 5-aza-2′-deoxycytidine], for which the “expression of RASAL1 protein” value in the assay with RASAL1 is reported as “restored”.

For `CCCc1cc(C)[nH]c(=O)c1CNC(=O)c1cc(-c2ccnc(N3CCN(C)CC3)c2)cc2c1cnn2C(C)C` [GSK343], at EZH2, the “CDKN2A locus (p16 protein immunoblot)” value is “activation of the CDKN2A locus”, the H3K27Me3 entry was “loss of H3K27Me3” and the “activated RAS” value is recorded as “reduced activated RAS”. In the assay on NSCs, the cell proliferation result is on record as “reduced cell proliferation”.

Consider `CC(C)C[C@@H](C=O)NC(=O)[C@H](CC(C)C)NC(=O)[C@H](CC(C)C)NC(=O)OCc1ccccc1` [MG132] (Cbz-Leu-Leu-Leu-aldehyde), for which the “protein expression of total MYC” value in the assay with MYC was “restored”.
